Reference: patent US10392368B2, “Pyrazolo and triazolo bicyclic compounds as JAK kinase inhibitors” (THERAVANCE BIOPHARMA R&D IP, LLC, priority 2017, dated 2019)
Like-named read-outs stand apart in the source and are kept apart here.

Legend:
[1] = target: T1, JAK1 (Homo sapiens, UniProt P23458); experiment: Biochemical JAK1 kinase assay (LanthaScreen); settings: for Ki: read-out: JAK 1 (pKi) (converted)
T1 construct: GST; purchased Life Technologies
Outline: (§1)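 GST-JAK + GFP-STAT1 peptide + cpd, 1 h preinc RT; ATP start, 1% DMSO, 1 h RT; stop 10 mM EDTA + 2 nM Tb-anti-pSTAT1; 1 h; TR-FRET 520/495. % inhib vs DMSO/background → IC50 (4-PL) → pKi (Cheng-Prusoff).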

[2] = target: T2, JAK2 (Homo sapiens, UniProt O60674); experiment: Biochemical JAK2 kinase assay (LanthaScreen); settings: for Ki: read-out: JAK 2 (pKi) (converted)
T2 construct: GST; purchased Life Technologies
T2 sequence (O60674 whole entry): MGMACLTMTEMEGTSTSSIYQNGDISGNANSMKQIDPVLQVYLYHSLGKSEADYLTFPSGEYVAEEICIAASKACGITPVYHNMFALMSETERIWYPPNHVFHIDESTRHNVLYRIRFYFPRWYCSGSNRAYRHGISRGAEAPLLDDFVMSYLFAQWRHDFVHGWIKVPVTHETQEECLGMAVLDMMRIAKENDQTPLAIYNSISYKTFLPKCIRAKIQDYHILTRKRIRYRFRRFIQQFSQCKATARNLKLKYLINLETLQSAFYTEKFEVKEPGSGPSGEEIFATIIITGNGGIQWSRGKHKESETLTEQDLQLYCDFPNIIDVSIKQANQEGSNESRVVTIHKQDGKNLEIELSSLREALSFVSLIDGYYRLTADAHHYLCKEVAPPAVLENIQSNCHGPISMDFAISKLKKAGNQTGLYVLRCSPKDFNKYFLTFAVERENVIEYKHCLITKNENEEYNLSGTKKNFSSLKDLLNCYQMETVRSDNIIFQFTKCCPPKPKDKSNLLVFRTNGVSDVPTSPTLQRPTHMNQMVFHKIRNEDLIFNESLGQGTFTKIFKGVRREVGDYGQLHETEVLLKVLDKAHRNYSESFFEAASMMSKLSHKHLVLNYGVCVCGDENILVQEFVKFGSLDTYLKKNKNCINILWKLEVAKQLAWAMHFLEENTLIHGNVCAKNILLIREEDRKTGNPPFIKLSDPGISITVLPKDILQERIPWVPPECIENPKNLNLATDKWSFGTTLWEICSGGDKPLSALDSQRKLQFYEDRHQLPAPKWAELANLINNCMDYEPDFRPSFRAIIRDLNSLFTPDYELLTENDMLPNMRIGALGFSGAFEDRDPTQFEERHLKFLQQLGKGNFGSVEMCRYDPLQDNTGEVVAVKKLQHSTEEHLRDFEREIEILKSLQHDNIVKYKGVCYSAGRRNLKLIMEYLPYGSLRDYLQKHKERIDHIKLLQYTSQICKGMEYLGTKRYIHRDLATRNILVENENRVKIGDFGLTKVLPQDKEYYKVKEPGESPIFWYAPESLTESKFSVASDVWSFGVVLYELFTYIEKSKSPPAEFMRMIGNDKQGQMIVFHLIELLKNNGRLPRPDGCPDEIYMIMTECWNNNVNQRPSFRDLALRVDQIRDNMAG
Outline: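 GST-tagged recombinant JAK2 pre-incubated 1 h at ambient temperature with compound and GFP-STAT1 peptide in HEPES pH 7.5/MgCl2 buffer, then ATP added for a 1 h reaction with 1% DMSO. TR-FRET read after EDTA and Tb-anti-pSTAT1 (pTyr701) addition; IC50 from 4-parameter fit, converted to pKi by Cheng-Prusoff.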

[3] = target: T3, Tyk2 (Homo sapiens, UniProt P29597); experiment: Biochemical Tyk2 kinase assay (LanthaScreen); settings: for Ki: read-out: Tyk 2 (pKi) (converted)
T3 construct: GST; purchased Life Technologies
T3 sequence (P29597 whole entry): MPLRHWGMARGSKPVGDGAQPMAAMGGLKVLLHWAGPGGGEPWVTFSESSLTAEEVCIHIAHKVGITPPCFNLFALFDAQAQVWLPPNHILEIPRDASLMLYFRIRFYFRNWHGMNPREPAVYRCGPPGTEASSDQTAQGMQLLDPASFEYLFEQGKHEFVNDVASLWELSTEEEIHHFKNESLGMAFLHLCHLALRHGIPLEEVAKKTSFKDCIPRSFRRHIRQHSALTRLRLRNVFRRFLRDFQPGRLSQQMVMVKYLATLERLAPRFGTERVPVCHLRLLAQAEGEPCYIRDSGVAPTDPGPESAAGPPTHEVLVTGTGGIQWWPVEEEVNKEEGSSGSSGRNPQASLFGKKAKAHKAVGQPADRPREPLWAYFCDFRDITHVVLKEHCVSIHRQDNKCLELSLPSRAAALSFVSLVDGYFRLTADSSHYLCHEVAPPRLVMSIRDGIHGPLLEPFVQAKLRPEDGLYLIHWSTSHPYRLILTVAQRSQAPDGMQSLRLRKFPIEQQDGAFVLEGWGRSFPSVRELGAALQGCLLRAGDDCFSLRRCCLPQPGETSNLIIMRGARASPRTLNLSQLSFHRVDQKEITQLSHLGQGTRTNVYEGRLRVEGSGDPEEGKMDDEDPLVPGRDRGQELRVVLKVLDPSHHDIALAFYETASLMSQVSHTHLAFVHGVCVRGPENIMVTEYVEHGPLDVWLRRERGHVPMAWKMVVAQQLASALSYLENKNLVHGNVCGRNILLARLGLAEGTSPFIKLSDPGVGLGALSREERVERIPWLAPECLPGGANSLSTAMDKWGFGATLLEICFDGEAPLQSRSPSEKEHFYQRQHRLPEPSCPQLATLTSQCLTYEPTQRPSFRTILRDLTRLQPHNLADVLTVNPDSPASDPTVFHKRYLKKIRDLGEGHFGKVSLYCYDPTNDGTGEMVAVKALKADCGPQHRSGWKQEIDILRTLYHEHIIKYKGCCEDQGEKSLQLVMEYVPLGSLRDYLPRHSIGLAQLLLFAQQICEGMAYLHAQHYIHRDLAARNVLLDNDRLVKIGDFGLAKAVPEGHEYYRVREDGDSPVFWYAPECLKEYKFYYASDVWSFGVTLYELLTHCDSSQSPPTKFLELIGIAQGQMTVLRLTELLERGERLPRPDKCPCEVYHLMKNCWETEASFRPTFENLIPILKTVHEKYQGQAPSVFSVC
Outline: as §1

[4] = tested on: IL-2 stimulated pSTAT5 in Tall-1 T cells; experiment: Cellular JAK3 potency assay: inhibition of IL-2 stimulated pSTAT5 in Tall-1 T cells; format: cell-based, human; settings: for Tall-1 (pIC50): IL-2 stimulated pSTAT5, Tall-1 T cells; for IC50: Homo sapiens, read-out: Tall-1 (pIC50) (converted)
Outline: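 In human Tall-1 T cells, IL-2 (300 ng/ml final, 30 min) drives STAT5 phosphorylation after a 1 h compound pretreatment. Lysates are assayed for pSTAT5 by AlphaLisa, and IC50 derived from signal versus concentration is expressed as pIC50.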

[5] = target: T4, JAK3 (Homo sapiens, UniProt P52333); experiment: Biochemical JAK3 kinase assay (LanthaScreen); set-up: GST; purchased Life Technologies; settings: for Ki: read-out: JAK 3 (pKi) (converted)
T4 sequence (P52333 1-1124): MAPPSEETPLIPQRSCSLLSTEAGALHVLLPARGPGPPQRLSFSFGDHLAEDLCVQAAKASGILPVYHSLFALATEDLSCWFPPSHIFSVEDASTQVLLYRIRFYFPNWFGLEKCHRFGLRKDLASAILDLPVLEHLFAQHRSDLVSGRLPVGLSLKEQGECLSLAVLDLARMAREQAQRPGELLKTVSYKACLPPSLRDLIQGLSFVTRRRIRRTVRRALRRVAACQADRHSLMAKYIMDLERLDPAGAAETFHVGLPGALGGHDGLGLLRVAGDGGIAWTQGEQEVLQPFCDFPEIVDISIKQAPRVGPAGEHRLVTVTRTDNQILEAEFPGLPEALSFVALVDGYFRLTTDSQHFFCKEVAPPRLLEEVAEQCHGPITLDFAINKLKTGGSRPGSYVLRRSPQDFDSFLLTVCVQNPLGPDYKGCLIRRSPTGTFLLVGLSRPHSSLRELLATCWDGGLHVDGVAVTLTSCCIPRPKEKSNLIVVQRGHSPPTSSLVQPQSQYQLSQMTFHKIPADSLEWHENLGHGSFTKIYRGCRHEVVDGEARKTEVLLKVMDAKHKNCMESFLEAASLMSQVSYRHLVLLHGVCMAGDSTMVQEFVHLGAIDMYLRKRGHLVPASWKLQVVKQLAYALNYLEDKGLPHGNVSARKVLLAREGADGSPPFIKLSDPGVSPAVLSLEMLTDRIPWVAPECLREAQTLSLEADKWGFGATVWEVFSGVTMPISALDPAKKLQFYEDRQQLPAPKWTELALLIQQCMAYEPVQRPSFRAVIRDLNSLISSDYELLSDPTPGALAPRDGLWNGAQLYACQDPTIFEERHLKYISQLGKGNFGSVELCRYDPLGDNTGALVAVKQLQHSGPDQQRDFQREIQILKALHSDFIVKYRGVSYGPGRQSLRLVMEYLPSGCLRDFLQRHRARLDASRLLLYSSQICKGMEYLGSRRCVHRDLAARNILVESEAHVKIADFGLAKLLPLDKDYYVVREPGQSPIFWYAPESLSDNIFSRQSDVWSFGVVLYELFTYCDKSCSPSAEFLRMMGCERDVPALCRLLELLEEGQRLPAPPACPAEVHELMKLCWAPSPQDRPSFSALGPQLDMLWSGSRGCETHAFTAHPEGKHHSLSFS
Outline: as §1

[6] = selectivity JAK3 over JAK1, difference of pKi
[7] = TALL-1, IL-2 stimulated pSTAT5 in Tall-1 T cells
[8] = selectivity: difference of pKi JAK3 and pKi JAK1
[9] = TALL-1, IL-2 stimulated pSTAT5, Tall-1 T cells

T1 sequence (P23458 whole entry): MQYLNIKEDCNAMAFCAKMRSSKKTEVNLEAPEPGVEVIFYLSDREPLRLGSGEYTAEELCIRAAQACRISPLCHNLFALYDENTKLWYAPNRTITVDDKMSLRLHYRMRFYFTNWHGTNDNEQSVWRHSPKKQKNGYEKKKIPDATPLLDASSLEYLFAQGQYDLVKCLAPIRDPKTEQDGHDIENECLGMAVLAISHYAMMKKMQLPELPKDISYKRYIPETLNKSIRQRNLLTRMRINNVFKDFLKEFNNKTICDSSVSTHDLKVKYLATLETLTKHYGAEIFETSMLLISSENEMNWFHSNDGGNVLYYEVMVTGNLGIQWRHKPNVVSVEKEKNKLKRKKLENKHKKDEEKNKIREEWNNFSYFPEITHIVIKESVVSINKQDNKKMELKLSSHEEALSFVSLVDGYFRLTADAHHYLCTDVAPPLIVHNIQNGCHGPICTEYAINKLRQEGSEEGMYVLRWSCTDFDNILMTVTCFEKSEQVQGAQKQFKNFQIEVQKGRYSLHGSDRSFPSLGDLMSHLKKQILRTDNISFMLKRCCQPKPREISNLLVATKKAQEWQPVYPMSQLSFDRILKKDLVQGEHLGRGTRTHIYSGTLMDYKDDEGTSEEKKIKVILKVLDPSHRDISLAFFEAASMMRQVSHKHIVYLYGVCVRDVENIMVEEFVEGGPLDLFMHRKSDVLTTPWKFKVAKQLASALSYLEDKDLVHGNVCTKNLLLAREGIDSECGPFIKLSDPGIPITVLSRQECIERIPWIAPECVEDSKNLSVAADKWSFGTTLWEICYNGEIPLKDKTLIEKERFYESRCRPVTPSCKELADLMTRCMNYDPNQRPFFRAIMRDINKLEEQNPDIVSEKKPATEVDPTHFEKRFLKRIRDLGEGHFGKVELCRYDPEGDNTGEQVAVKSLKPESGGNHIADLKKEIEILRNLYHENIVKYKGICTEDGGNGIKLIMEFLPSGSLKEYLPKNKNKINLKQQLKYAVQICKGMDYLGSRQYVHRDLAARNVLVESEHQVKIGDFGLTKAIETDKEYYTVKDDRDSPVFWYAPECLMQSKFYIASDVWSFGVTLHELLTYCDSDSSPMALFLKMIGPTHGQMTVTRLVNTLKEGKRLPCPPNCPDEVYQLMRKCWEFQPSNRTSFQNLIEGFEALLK

Row | Compound | JAK 1 (pKi) [1] | JAK 2 (pKi) [2] | Tyk 2 (pKi) [3] | Tall-1 (pIC50) [4] | JAK 3 (pKi) [5] | JAK3 (pKi)-JAK1 (pKi) [5, 6] | Ki [1] [nM] | Ki [2] [nM] | Ki [3] [nM] | IC50 [4, 7] [nM] | Ki [5] [nM] | JAK3 (pKi)-JAK1 (pKi) [5, 8] | IC50 [4, 9] [nM]
1 | C=CC(=O)N1C2CCC1CC(Oc1cc(-c3ccc(O)c(Cl)c3)cc3[nH]ncc13)C2 (stereo not drawn) [Compound 9-2] | E (a pKi value of 7 or below (Ki of 100 nM or above)) | E (a pKi value of 7 or below (Ki of 100 nM or above)) | E (a pKi value of 7 or below (Ki of 100 nM or above)) | A (a pIC50 value≥7.5 (IC50≤32 nM)) | B (a pKi value between 9 and 10 (Ki between 1 nM and 0.1 nM)) | A (a value of 3 or above) | – | – | – | – | – | – | –
2 | C=CC(=O)N1C2CCC1CC(Oc1cc(-c3ccc(O)c(F)c3)cc3[nH]ncc13)C2 (stereo not drawn) [Compound 9-4] | E (a pKi value of 7 or below (Ki of 100 nM or above)) | C (a pKi value between 8 and 9 (Ki between 10 nM and 1 nM)) | E (a pKi value of 7 or below (Ki of 100 nM or above)) | A (a pIC50 value≥7.5 (IC50≤32 nM)) | A (a pKi value≥10 (Ki≤0.1 nM)) | A (a value of 3 or above) | – | – | – | – | – | – | –
3 | C=CC(=O)N1C2CCC1CC(Nc1cc(-c3ccc(O)cc3)cc3[nH]ncc13)C2 (stereo not drawn) [Compound 9-9] | D (a pKi value between 7 and 8 (Ki between 100 nM and 10 nM)) | C (a pKi value between 8 and 9 (Ki between 10 nM and 1 nM)) | D (a pKi value between 7 and 8 (Ki between 100 nM and 10 nM)) | A (a pIC50 value≥7.5 (IC50≤32 nM)) | A (a pKi value≥10 (Ki≤0.1 nM)) | B (a value of 2.3 to 3) | – | – | – | – | – | – | –
4 | C=CC(=O)N1CC(COc2cc(-c3ccc(O)cc3)nc3[nH]ncc23)C1 [Compound 10, 1-(3-(((6-(4-hydroxyphenyl)-1H-pyrazolo[3,4-b]pyridin-4-yl)oxy)methyl)azetidin-1-yl)prop-2-en-1-one] | – | – | – | – | – | – | > 100 | > 100 | > 100 | 31.6 to 200 | < 0.1 | A (a value of 3 or above) | –
5 | C=CC(=O)N1C2CCC1CC(Oc1cc(-c3ccc(O)cc3)cc3[nH]ncc13)C2 (stereo not drawn) [Compound 10-2] | D (a pKi value between 7 and 8 (Ki between 100 nM and 10 nM)) | C (a pKi value between 8 and 9 (Ki between 10 nM and 1 nM)) | D (a pKi value between 7 and 8 (Ki between 100 nM and 10 nM)) | A (a pIC50 value≥7.5 (IC50≤32 nM)) | A (a pKi value≥10 (Ki≤0.1 nM)) | B (a value of 2.3 to 3) | – | – | – | – | – | – | –
6 | C=CC(=O)N1C2CCC1CC(Oc1cc(-c3ccc(O)c(Cl)c3)cc3[nH]ncc13)C2 (stereo not drawn) [Compound 10-4] | E (a pKi value of 7 or below (Ki of 100 nM or above)) | D (a pKi value between 7 and 8 (Ki between 100 nM and 10 nM)) | E (a pKi value of 7 or below (Ki of 100 nM or above)) | B (a pIC50 value between 6.7 (included) and 7.5 (IC50 between 200 nM and 32 nM)) | B (a pKi value between 9 and 10 (Ki between 1 nM and 0.1 nM)) | A (a value of 3 or above) | – | – | – | – | – | – | –
7 | C=CC(=O)N1C2CCC1CC(Nc1cc(-c3ccc(O)cc3)cc3[nH]ncc13)C2 (stereo not drawn) [Compound 10-7] | E (a pKi value of 7 or below (Ki of 100 nM or above)) | D (a pKi value between 7 and 8 (Ki between 100 nM and 10 nM)) | E (a pKi value of 7 or below (Ki of 100 nM or above)) | B (a pIC50 value between 6.7 (included) and 7.5 (IC50 between 200 nM and 32 nM)) | B (a pKi value between 9 and 10 (Ki between 1 nM and 0.1 nM)) | A (a value of 3 or above) | – | – | – | – | – | – | –
8 | CN(C)C/C=C/C(=O)N1CC(CN(C)c2cc(-c3ccc(O)cc3)cc3[nH]ncc23)C1 [Compound 11, (E)-4-(dimethylamino)-1-(3-(((6-(4-hydroxyphenyl)-1H-indazol-4-yl)(methyl)amino)methyl)azetidin-1-yl)but-2-en-1-one] | – | – | – | – | – | – | > 100 | > 100 | > 100 | 31.6 to 200 | 0.1 to 1 | A (a value of 3 or above) | –
9 | C=CC(=O)N1CC[C@H](Sc2cc(-c3ccc(O)cc3)cc3[nH]ncc23)C1 [Compound 12, (S)-1-(3-((6-(4-hydroxyphenyl)-1H-indazol-4-yl)thio)pyrrolidin-1-yl)prop-2-en-1-one] | – | – | – | – | – | – | > 100 | > 100 | > 100 | 31.6 to 200 | 0.1 to 1 | B (a value of 2.3 to 3) | –
10 | CN(C)C/C=C/C(=O)N1CC[C@H](Sc2cc(-c3ccc(O)cc3)cc3[nH]ncc23)C1 [Compound 12-1] | – | – | – | – | – | A (a value of 3 or above) | > 100 | 10 to 100 | > 100 | – | 0.1 to 1 | – | 31.6 to 200
11 | C=CC(=O)N1CCC(Sc2cc(-c3ccc(O)cc3)cc3[nH]ncc23)CC1 [Compound 12-4] | – | – | – | – | – | A (a value of 3 or above) | > 100 | > 100 | > 100 | – | 0.1 to 1 | – | 31.6 to 200
12 | C=CC(=O)N1CC[C@H](Nc2cc(-c3ccc(O)cc3)cc3[nH]ncc23)[C@H](C)C1 [Compound 12-16] | – | – | – | – | – | B (a value of 2.3 to 3) | 10 to 100 | 1 to 10 | > 100 | – | 0.1 to 1 | – | < 31.6
13 | C=CC(=O)N1CC[C@@H](Nc2cc(-c3ccc(O)cc3)cc3[nH]ncc23)[C@H](C)C1 [Compound 12-17] | – | – | – | – | – | B (a value of 2.3 to 3) | 10 to 100 | 1 to 10 | > 100 | – | < 0.1 | – | < 31.6
14 | C=CC(=O)N1CC[C@@H](COc2cc(-c3ccc(O)cc3)cc3[nH]ncc23)C1 [Compound 12-20] | E (a pKi value of 7 or below (Ki of 100 nM or above)) | D (a pKi value between 7 and 8 (Ki between 100 nM and 10 nM)) | E (a pKi value of 7 or below (Ki of 100 nM or above)) | A (a pIC50 value≥7.5 (IC50≤32 nM)) | B (a pKi value between 9 and 10 (Ki between 1 nM and 0.1 nM)) | A (a value of 3 or above) | – | – | – | – | – | – | –
15 | CN(C)C/C=C/C(=O)N1CCC(COc2cc(-c3ccc(O)cc3)cc3[nH]ncc23)CC1 [Compound 12-26] | – | – | – | – | – | B (a value of 2.3 to 3) | > 100 | 10 to 100 | > 100 | – | 0.1 to 1 | – | 200 to 1000
16 | C=CC(=O)N1CCC(COc2cc(-c3ccc(O)cc3)cc3[nH]ncc23)CC1 [Compound 12-27] | – | – | – | – | – | A (a value of 3 or above) | > 100 | 10 to 100 | > 100 | – | < 0.1 | – | < 31.6
17 | C[C@@H]1C[C@H](Oc2cc(-c3ccc(O)cc3)cc3[nH]ncc23)CCN1C(=O)/C=C/CN(C)C [Compound 12-28] | – | – | – | – | – | A (a value of 3 or above) | > 100 | 1 to 10 | > 100 | – | < 0.1 | – | 31.6 to 200
